Test results taken from PubChem BioAssay (NCI).
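Protocol summary: plate cells (96-well), add compound at 5 concentrations, incubate 48 h, interpolate endpoints linearly. Here, GI50 denotes the concentration required for 50% inhibition of growth. Definition used: TGI = concentration required for complete inhibition of growth.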

How the values were obtained:
Assay in all cases: NCI tumour cell line growth inhibition, 48 h
[1] = tested on: NCI-H23 lung
[2] = tested on: NCI-H460 lung
[3] = tested on: NCI-H522 lung
[4] = tested on: NCI/ADR-RES ovarian
[5] = tested on: OVCAR-3 ovarian
[6] = tested on: OVCAR-4 ovarian
[7] = tested on: OVCAR-5 ovarian
[8] = tested on: OVCAR-8 ovarian
[9] = tested on: PC-3 prostate
[10] = tested on: RPMI-8226 leukemia
[11] = tested on: RXF 393 renal
[12] = tested on: SF-268 CNS
[13] = tested on: SF-295 CNS
[14] = tested on: SF-539 CNS
[15] = tested on: SK-MEL-2 melanoma
[16] = tested on: SK-MEL-28 melanoma
[17] = tested on: SK-MEL-5 melanoma
[18] = tested on: SK-OV-3 ovarian
[19] = tested on: SN12C renal
[20] = tested on: SNB-19 CNS
[21] = tested on: SNB-75 CNS
[22] = tested on: SR leukemia
[23] = tested on: SW-620 colon
[24] = tested on: T-47D breast
[25] = tested on: TK-10 renal
[26] = tested on: U251 CNS
[27] = tested on: UACC-257 melanoma
[28] = tested on: UACC-62 melanoma
[29] = tested on: UO-31 renal

For FC(F)(F)CNc1nccc(-c2cnn3ncccc23)n1, the GI50 [1] was 9.54 µM, the TGI [1] was over 25 µM and the GI50 [2] was 10.2 µM. The TGI [2] was over 25 µM, the GI50 [3] was 9.91 µM and the TGI [3] was over 25 µM. It also gave a GI50 [4] of 13.6 µM, a TGI [4] of over 25 µM and a GI50 [5] of 10.5 µM. The TGI [5] was over 25 µM, the GI50 [6] was over 25 µM and the TGI [6] was over 25 µM. For the same compound, the GI50 [7] was 9.68 µM, the TGI [7] was over 25 µM and the GI50 [8] was 8.58 µM. It also gave a TGI [8] of over 25 µM, a GI50 [9] of 24.5 µM and a TGI [9] of over 25 µM. For the same compound, the GI50 [10] was over 17.5 µM, the TGI [10] was over 25 µM and the GI50 [11] was 4.86 µM. It also gave a TGI [11] of 12.4 µM, a GI50 [12] of 8.24 µM and a TGI [12] of over 25 µM. The GI50 [13] was 11.9 µM, the TGI [13] was over 25 µM and the GI50 [14] was 7.76 µM. It also gave a TGI [14] of over 25 µM, a GI50 [15] of 8.72 µM and a TGI [15] of over 25 µM. For the same compound, the GI50 [16] was 8.13 µM, the TGI [16] was over 25 µM and the GI50 [17] was 10.5 µM. It also gave a TGI [17] of over 25 µM, a GI50 [18] of over 25 µM and a TGI [18] of over 25 µM. For the same compound, the GI50 [19] was 14.5 µM, the TGI [19] was over 25 µM and the GI50 [20] was 12.7 µM. It also gave a TGI [20] of over 25 µM, a GI50 [21] of 11.3 µM and a TGI [21] of over 25 µM. It also gave a GI50 [22] of 6.88 µM, a TGI [22] of over 25 µM and a GI50 [23] of 10.9 µM. The TGI [23] was over 25 µM, the GI50 [24] was 8.93 µM and the TGI [24] was over 25 µM. The GI50 [25] was 10.3 µM, the TGI [25] was over 25 µM and the GI50 [26] was 9.82 µM. It also gave a TGI [26] of over 25 µM, a GI50 [27] of over 19.2 µM and a TGI [27] of over 25 µM. It also gave a GI50 [28] of 10.9 µM, a TGI [28] of over 25 µM and a GI50 [29] of 15.3 µM. For the same compound, the TGI [29] was over 25 µM.
